Series [1] relates to PGF2α receptor. The following applies: cited from earlier work.
For series [2], the target named is T1, TP (Homo sapiens, UniProt P21731).
T1 sequence (P21731 1-343): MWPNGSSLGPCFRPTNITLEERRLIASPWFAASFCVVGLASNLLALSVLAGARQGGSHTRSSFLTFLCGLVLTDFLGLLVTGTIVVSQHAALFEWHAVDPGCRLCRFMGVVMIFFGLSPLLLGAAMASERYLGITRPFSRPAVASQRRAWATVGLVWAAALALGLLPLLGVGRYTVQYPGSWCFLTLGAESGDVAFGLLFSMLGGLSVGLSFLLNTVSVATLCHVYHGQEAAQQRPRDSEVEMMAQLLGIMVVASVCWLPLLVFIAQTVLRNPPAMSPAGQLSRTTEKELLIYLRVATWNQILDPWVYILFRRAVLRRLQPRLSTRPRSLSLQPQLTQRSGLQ
The following applies: 10 μM; cited from earlier work.

Series [3] addresses T2, DP (Homo sapiens, UniProt Q13258).
T2 sequence (Q13258 1-359): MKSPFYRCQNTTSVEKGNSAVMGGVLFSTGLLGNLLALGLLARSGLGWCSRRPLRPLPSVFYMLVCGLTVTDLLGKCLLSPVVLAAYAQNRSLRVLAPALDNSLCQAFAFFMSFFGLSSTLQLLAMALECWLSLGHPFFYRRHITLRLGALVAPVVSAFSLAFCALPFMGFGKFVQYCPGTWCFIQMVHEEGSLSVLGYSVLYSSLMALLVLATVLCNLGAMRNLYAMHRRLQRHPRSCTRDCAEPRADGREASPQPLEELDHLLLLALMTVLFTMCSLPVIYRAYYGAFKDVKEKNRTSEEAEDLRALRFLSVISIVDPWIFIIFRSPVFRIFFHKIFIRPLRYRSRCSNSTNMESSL
The note with it: 10 μM; cited from earlier work.

Series [4] concerns the target EP2 (Homo sapiens, UniProt P43116). The following applies: 10 μM; cited from earlier work.
For series [5], the target named is EP4 (Homo sapiens, UniProt P35408). The note with it: 10 μM; cited from earlier work.
Series [6] concerns Ishikawa cells. Description: Proliferation assay (BrdU incorporation ELISA) in Ishikawa cells. The series is classed as cell-based, human. The note with it: U73122 2μM, no PGF2α. As for the experimental part:
Proliferation of Ishikawa cells was determined using a BrdU incorporation ELISA (Roche Diagnostics GmbH, Mannheim, Germany). Briefly, Ishikawa cells were seeded at 5×10^3 cells per well in a 96-well plate and allowed to adhere overnight. Cells were next starved for 24 hr with indomethacin 1.5 μg/ml before 24 h PGF2α treatment (1 nM-1 μM) in serum-free medium containing indomethacin. Inhibitors were added to cells for 60 min before PGF2α with the control well receiving the same concentration of vehicle. Following 24 h treatment, cells were labelled with BrdU for 4 h, then fixed and assayed for BrdU incorporation using standard immunohistochemical techniques. Results were plotted as percentages of untreated cells.

Series [7] relates to human endometrium. Description: Total inositol phosphate (InsP) assay in human endometrium tissue. The series is classed as cell-based. As for the experimental part: (§1) PGF2α stimulation of total InsP production was as described (21). Briefly, tissue samples or Ishikawa cells were incubated with inositol free DMEM containing 1% dialyzed heat-inactivated FCS and 0.5 μCi/well myo-[^3H]inositol (Amersham Pharmacia Biotech) for 48 hours. Medium was removed, and cells washed with 1 ml buffer (140 mM NaCl, 20 mM HEPES, 4 mM KCl, 8 mM glucose, 1 mM MgCl2, 1 mM CaCl2, 1 mg/ml bovine serum albumin) containing 10 mM LiCl. Cells were then incubated for 1 hour at 37° C. in 1 ml buffer with or without inhibitors. Following incubation agonist was added at the required concentration and cells incubated for 1 hour. Reactions were terminated by the removal of agonist and the addition of 500 μl ice cold 10 mM formic acid, which was incubated for 30 minutes at 4° C. Total [^3H] inositol phosphates was separated from the formic acid cell extracts on AG 1-X8 anion exchange resin (Bio-Rad) and eluted with a 1 M ammonium formate/0.1 M formic acid solution. The associated radioactivity was determined by liquid scintillation counting and plotted relative to protein concentrations determined using the modified Lowry method.

The test system of series [8] is Ishikawa cells. Description: Total inositol phosphate (InsP) assay in Ishikawa cells. The note with it: PGF2α 100 nM. The series is classed as cell-based, human. As for the experimental part:
as §1

For series [9], the system named is Ishikawa cells. Description: ERK phosphorylation in Ishikawa cells. The series is classed as cell-based, human. The following applies: 100 nM, treatment for 10 min. How it is done: ERK phosphorylation in Ishikawa cells. PGF2α 100 nM was incubated for 10 and 30 min. U73122 2 μM was pre-incubated for 60 min before treatment with PGF2α.
In series [10] the test system is HCT-8. The following applies: HCT-8 human colon adenocarcinoma cell line; cited from earlier work.
The test system of series [11] is HT-29. The following applies: HT-29 human colon adenocarcinoma cell line; cited from earlier work.

“Also recorded” adds a separate entry of the source.

The values that follow come from US20070004620A1, “Fp receptor antagonists or pgf2 alpha antagonists for treating pathological conditions of the uterus” (priority 2002, published 2007).

Sequence of EP4 (P35408 whole entry): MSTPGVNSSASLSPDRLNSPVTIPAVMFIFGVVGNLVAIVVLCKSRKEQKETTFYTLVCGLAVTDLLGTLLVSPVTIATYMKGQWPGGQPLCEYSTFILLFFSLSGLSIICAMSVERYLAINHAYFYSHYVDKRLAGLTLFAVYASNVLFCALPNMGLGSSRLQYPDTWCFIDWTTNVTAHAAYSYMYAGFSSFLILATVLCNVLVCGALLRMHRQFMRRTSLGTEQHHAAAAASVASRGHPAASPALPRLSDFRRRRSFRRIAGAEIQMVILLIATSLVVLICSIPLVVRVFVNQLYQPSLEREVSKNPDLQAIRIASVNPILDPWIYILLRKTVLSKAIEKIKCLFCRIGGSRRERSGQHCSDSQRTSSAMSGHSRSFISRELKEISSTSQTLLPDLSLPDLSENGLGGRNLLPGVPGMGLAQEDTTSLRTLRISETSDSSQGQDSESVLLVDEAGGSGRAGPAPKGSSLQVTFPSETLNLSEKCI
Sequence of EP2 (P43116 whole entry): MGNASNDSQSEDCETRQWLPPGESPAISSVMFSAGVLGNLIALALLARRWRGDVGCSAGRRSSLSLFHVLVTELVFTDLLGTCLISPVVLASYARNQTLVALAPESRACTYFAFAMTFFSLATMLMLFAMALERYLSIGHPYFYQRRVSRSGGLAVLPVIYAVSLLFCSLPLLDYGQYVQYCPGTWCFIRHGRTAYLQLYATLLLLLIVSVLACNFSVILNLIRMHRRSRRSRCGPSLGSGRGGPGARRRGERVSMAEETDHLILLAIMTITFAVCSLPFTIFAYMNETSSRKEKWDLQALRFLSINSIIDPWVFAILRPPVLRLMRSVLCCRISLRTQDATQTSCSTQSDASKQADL

As to `CCCCC(F)[C@H](O)/C=C/[C@H]1CC[C@H](O)[C@@H]1C/C=C\CCCC(=O)O` (stereo partly drawn) [AL-3138, 11-deoxy-16-fluoro PGF2α], in [1], the “agonist activity at the PGF2α (FP) receptor” value is listed as “weak partial agonist; also recorded: partial agonist of low efficacy” and the “antagonist activity at the PGF2α (FP) receptor” value (shortened to “antagonist activity at the PGF2α”) is on record as “highly selective antagonist”.
With `O=C(O)CCC/C=C\C[C@@H]1[C@@H](/C=C/[C@H](O)C2Cc3ccccc3C2)[C@@H](F)C[C@@H]1O` [AL-8810, (5Z, 13E)-(9S,11S,15R)-9,15-dihydroxy-11-fluoro-15-(2-indanyl)-16,17,18,19,20-pentanor-5,13-prostadienoic acid], the “inhibition of functional responses of TP” value in series [2] is given as “not to significantly inhibit”. Besides, the “inhibition of functional responses of DP” value in series [3] is “not to significantly inhibit”. The “inhibition of functional responses of EP2” value in [4] is on record as “not to significantly inhibit”. Also, the “inhibition of functional responses of EP4” value in series [5] is recorded as “not to significantly inhibit”. In [1], the “FP receptor antagonist potency” value is on record as “micromolar”, the “agonist activity at the PGF2α (FP) receptor” value is reported as “weak partial agonist” and the “antagonist activity at the PGF2α” value was “highly selective antagonist”.
Regarding `COc1ccc2c(c1)CC[C@@H]1[C@@H]2CC[C@]2(C)[C@@H](NCCCCCCN3C(=O)C=CC3=O)CC[C@@H]12` [U73122], the “basal proliferation after pre-incubation with inhibitor” value in [6] came out at 93.9±1.9%.
On to `Cc1ccc(S(=O)(=O)NC(=O)NN2CCCCCC2)cc1` [tolazamide], for which the “antagonist activity at the PGF2α” value in series [1] is reported as “very weak antagonists”.
Consider `CCCCNC(=O)NS(=O)(=O)c1ccc(C)cc1` [tolbutamide], for which, in series [1], the “antagonist activity at the PGF2α” value is recorded as “very weak antagonists”.
Take prostaglandin F2α [PGF2α]: the “concentration at which maximal InsP mobilisation was observed” value in series [7] is 100 nM. Besides, in series [8], the “total InsP, maximum” value came out at 29 cpm/mg protein. Also, the “fold increase in phosphorylated ERK intensity compared to native ERK” value in series [9] was 6.6±0.7 fold. Further, the “proliferation by PGF2α” value in series [10] and in series [11] was “lack of proliferation” throughout.
